Test results as given in patent US10849867B2, “Methods and compositions for treating conditions associated with an abnormal inflammatory response” (First Wave Bio, Inc., priority 2015, dated 2020).

Key:
TNBS-induced colitis = experiment: Relapsing TNBS-induced colitis in mice, rectal niclosamide (Example 4); type: in vivo, C57BL/6J female mice; conditions: relative to vehicle control
Excerpt: Objective. […] Model. The TNBS-induced colitis is a commonly used experimental model for Inflammatory Bowel Disease (IBD). TNBS (trinitrobenzenesulfonic acid) is a chemical administered rectally in the form of an enema to mice or rats in combination with ethanol, which disrupts the mucous barrier, and induces colitis by […] proteins within the gut, causing them to become preferential targets for immune cells. The severity of TNBS-induced colitis depends largely on the dosage applied and the strain of animal used. In chronic, relapsing form of the model, animals are sensitized by escalating, intracolonic doses of TNBS. Disease is monitored in-life by weight loss. Histology of colon specimens is used to determine disease severity at study termination (Gastroenterology. 2003 December; 125(6). 1750-61; Inflamm Bowel Dis. 2006 October; 12(10):995-9.) Mouse strain and housing. C57BL/6J female mice (9-weeks old) are purchased by Jackson and are housed at a temperature ranging from 68 to 74° F. with a diurnal 12 hour light cycle in a specific pathogen-free facility in ventilated cages. Food and water is provided ad libitum. Animals are acclimated to local microbiota for 7 days before the beginning of the experiment. Cell isolation and culture procedures are as noted in Example 2. Conditioning to induce colitis. To perform the studies of relapsing hapten-induced colitis 4 escalating doses of TNBS in 50% ethanol are administered at weekly intervals to lightly anesthetized mice through a 3.5Fr catheter inserted into the rectum. The catheter tip is inserted 4 cm proximal to the anal verge, and 150 μL of fluid is slowly instilled into the colon, after which the mouse is held in a vertical position for 30 seconds per rectum at weekly intervals. […] For the clinical assessment of colitis, animal weight, diarrhea (0=absent; 1=present), rectal prolapse (0=absent; l=present) and presence of blood in the stool (0=absent; l=present) is recorded daily. […] For statistical comparisons, two-way Anova test with Bonferroni correction is calculated with […] software.

[1] = Colon concentration in mice compared with uncoupling concentration (Example 6); type: in vivo
Experimental: Model. Results from Examples 2 and 5 are used together. […] This concentration is directly compared to the dose-response data to determine if efficacious exposure is sufficient to induce mitochondrial uncoupling in colon.
Pharmacokinetic study design.
Calculation of target coverage. The average area under the colon concentration versus time curve (AUC) and the peak concentration is calculated and is plotted and is graphed.

[2] = Pharmacokinetics following a single rectal administration to NZW rabbits (Example 11); type: in vivo, New Zealand White KBL Rabbit; conditions: Treatment B 7.5, NZW rabbits; for concentration at 2 h / concentration at 4 h / concentration at 8 h / concentration at 24 h: male, New Zealand White KBL, rabbit, plasma, other: rectal, 7.5 mg, Niclosamide Plasma Concentrations
Excerpt: Following dosing, blood samples and rectal mucosa was obtained at indicated time points.

[3] = cited from earlier work

concentration in the colon ([1]; single rectal dose 1 mg/kg (below maximal efficacy)): < 5 µM | colon peak concentration ([1]; single rectal dose 3 mg/kg (therapeutic dosage)): > 5 µM | Niclosamide Plasma Concentrations, Mean ([2]; 1 h): 3.9275 ng/mL | concentration at 2 h ([2]; Mean, 2 h): 19.7 ng/mL | concentration at 4 h ([2]; Mean, 4 h): 12 ng/mL | concentration at 8 h ([2]; Mean, 8 h): 4.68 ng/mL | concentration at 24 h ([2]; Mean, 24 h): 1.07 ng/mL | concentration at 2 h ([2]; Subject 666, 2 h): 5.19 ng/mL | concentration at 8 h ([2]; Subject 666, 8 h): 4.73 ng/mL | concentration at 2 h ([2]; Subject 667, 2 h): 3.26 ng/mL | concentration at 8 h ([2]; Subject 667, 8 h): 4.63 ng/mL | concentration at 24 h ([2]; Subject 667, 24 h): 1.07 ng/mL | concentration at 2 h ([2]; Subject 668, 2 h): 50.7 ng/mL | concentration at 4 h ([2]; Subject 668, 4 h): 2.21 ng/mL
Compound: O=C(Nc1ccc([N+](=O)[O-])cc1Cl)c1cc(Cl)ccc1O [Niclosamide, 5-chloro-N-(2-chloro-4-nitrophenyl)-2-hydroxybenzamide]
colitis clinical scores (TNBS-induced colitis; daily, 1-100 mg/kg): dose-related decrease | colitis histologic scores (TNBS-induced colitis; daily, 1-100 mg/kg): dose-related decrease | doses that significantly reduce both clinical and histologic scores (p<0.05) (TNBS-induced colitis): ≥ 3 mg/kg | water solubility ([3]; at 20° C.): 5 to 8 µg/mL | solubility in acetone [3]: soluble | solubility in ether, ethanol and chloroform [3]: sparingly soluble
